Patent US12503456B2, “Substituted pyrimidines and 1,3,5-triazines as RHOJ inhibitors” (Fondazione Istituto Italiano Di Tecnologia, priority 2017, dated 2025)
Read-outs that look alike come from different tables or passages of the source.

Columns and labels:
Assay type in all cases: cell-based
RhoJ PAK interaction = target: T1, RhoJ PAK interaction (Homo sapiens, UniProt Q9H4E5); test: Cdc42 activation assay (PAK1 PBD bead pull-down, immunoblot); details: cell lysates from WM3248 cells, PAK coupled beads, FIG. 2
T1 construct: host or cells: WM3248 cells
T1 sequence (Q9H4E5 1-211 limits assumed): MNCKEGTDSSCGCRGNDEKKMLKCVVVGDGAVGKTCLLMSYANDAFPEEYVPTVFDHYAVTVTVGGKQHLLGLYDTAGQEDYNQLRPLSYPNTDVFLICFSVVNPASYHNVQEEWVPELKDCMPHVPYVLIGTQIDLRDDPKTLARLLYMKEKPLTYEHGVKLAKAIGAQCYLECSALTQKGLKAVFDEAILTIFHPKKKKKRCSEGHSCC
Protocol: A Cdc42 activation assay was performed according the manufacturer's protocol (Cell Biolabs, San Diego, CA). Briefly, cells treated with the inhibitor were lysed and either loaded with GDP or GTPyS. Agarose beads conjugated with the PAK1 PBD domain pulled down Cdc42, Rac1, or RhoJ only when GTP-bound. Lysates were then immunoblotted with indicated Abs. Results are illustrated in FIG. 2. […] Briefly, cells were treated with compound 1 (ARN12405) and cell lysates were prepared and incubated with PAK coupled beads. Immunoprecipitated proteins were subjected to SDS PAGE and immunoblotted with a (A) RhoJ antibody, (B) Cdc42 antibody, (C) Rac1 antibody, (D) Cells were treated with one of a panel of RhoJ interaction inhibitors at a concentration of 10 μm or 50 μm (see FIG. 2, panels A-D). Lysates were prepared, incubated with PAK coupled beads, and immunoprecipitated proteins were immunoblotted with a RhoJ antibody.

melanoma cells = test: Cell viability assay (Cell Titer-Glo), inhibitor alone or with Cisplatin
Protocol: Cells were seeded at 10,000 cells/well in 96-well plates and incubated for 24 h at 37° C. with 5% CO2. […] The cell viability was determined using the Cell Titer-Glo luminescent cell viability assay kit (Promega, Madison, WI), according to the manufacturer's instructions. Luminescence was measured using a DTX 800 microplate reader (Coulter). The half-maximal inhibitory concentration (IC50) values were calculated using the GraphPad Prism software. The assay was done by conducting 3 independent experiments.

WM3248 melanoma cells = test: Flow cytometric analyses for apoptosis (Annexin V and PI); details: 24 hours, FIG. 1
Protocol: Approximately 1×10^6 melanoma cells treated with inhibitors for 24 hours and were then trypsinized and washed with PBS, the single-cell suspensions were incubated with Alexa Fluor-Annexin V and propidium iodide (PI) (V13245; Invitrogen) per the manufacturer's protocol and were subjected to flow cytometric analysis. In all cases, cell debris was gated out on the basis of forward scatter and side scatter analysis. Data was analyzed using FlowJo (Ashland, OR). Results are illustrated in FIG. 1, wherein WM3248 melanoma cells were treated with the indicated doses of compound 1 (ARN12405) and apoptosis was measured by flow cytometry using Annexin V and PI.

[1] = inhibitor (1.25-50 μM) with Cisplatin at 20 μM, 24 hours, Cell Titer-Glo, 3 independent experiments, read-out: IC50 (CisPt)

Row | SMILES | IC50 (melanoma cells; [1]) | other results
1 | Clc1ccc(Nc2cc(-c3ccncc3)nc(C3CCCNC3)n2)cc1 (stereo not shown) [Compound 1] | 12.8 µM | RhoJ PAK interaction in cell lysates (SDS PAGE and immunoblotting) (RhoJ PAK interaction): block of RhoJ PAK interaction; apoptosis measured by flow cytometry using AnnexinV and PI (WM3248 melanoma cells): apoptosis induced
2 | Clc1ccc(Nc2cc(-c3cccnc3)nc(C3CCCNC3)n2)cc1 (stereo not shown) [Compound 2] | 11.5 µM | 
3 | Clc1ccc(Nc2cc(-c3ccccn3)nc(C3CCCNC3)n2)cc1 (stereo not shown) [Compound 3] | 38.2 µM | 
4 | Clc1ccc(Nc2cc(-c3ccccc3)nc(C3CCCNC3)n2)cc1 (stereo not shown) [Compound 4] | 7 µM | 
5 | Clc1cccc(Nc2cc(-c3ccncc3)nc(C3CCCNC3)n2)c1 (stereo not shown) [Compound 5] | 42.3 µM | 
6 | COc1ccc(-c2cc(Nc3ccc(Cl)cc3)nc(C3CCCNC3)n2)cc1 (stereo not shown) [Compound 6] | 17 µM | 
7 | Fc1ccc(-c2cc(Nc3ccccc3)nc(C3CCCNC3)n2)cc1 (stereo not shown) [Compound 7] | 32 µM | 
8 | CN(C)c1ccc(Nc2cc(-c3ccccc3)nc(C3CCCNC3)n2)cc1 (stereo not shown) [Compound 8, N1,N1-dimethyl-N4-[6-phenyl-2-(3-piperidyl)pyrimidin-4-yl]benzene-1,4-diamine] | 31.4 µM | 
9 | COc1ccc(Nc2cc(-c3ccccc3)nc(C3CCCNC3)n2)cc1 (stereo not shown) [Compound 9, N-(4-methoxyphenyl)-6-phenyl-2-(3-piperidyl)pyrimidin-4-amine] | > 50 µM | IC50 (melanoma cells; 24 h, read-out: IC50 (alone)): > 50 µM
10 | CN(C)c1cccc(Nc2cc(-c3ccccc3)nc(C3CCCNC3)n2)c1 (stereo not shown) [Compound 10, N3,N3-dimethyl-N1-[6-phenyl-2-(3-piperidyl)pyrimidin-4-yl]benzene-1,3-diamine] |  | IC50 (melanoma cells; 24 h, read-out: IC50 (alone)): 45 µM
11 | COc1cccc(Nc2cc(-c3ccccc3)nc(C3CCCNC3)n2)c1 (stereo not shown) [Compound 11, N-(3-methoxyphenyl)-6-phenyl-2-(3-piperidyl)pyrimidin-4-amine] | 27.8 µM | 
12 | CN(C)c1ccc(Nc2cc(-c3ccccc3)nc(C3CCNCC3)n2)cc1 [Compound 12, N4,N4-dimethyl-N1-[6-phenyl-2-(4-piperidyl)pyrimidin-4-yl]benzene-1,4-diamine] |  | IC50 (melanoma cells; 24 h, read-out: IC50 (CisPt)): 86.3 µM
13 | COc1ccc(Nc2cc(-c3ccccc3)nc(C3CCNCC3)n2)cc1 [Compound 13, N-(4-methoxyphenyl)-6-phenyl-2-(4-piperidyl)pyrimidin-4-amine] | 36.7 µM | 
14 | CN(C)c1cccc(Nc2cc(-c3ccccc3)nc(C3CCNCC3)n2)c1 [Compound 14, N3,N3-dimethyl-N1-[6-phenyl-2-(4-piperidyl)pyrimidin-4-yl]benzene-1,3-diamine] | 17.2 µM | 
15 | COc1cccc(Nc2cc(-c3ccccc3)nc(C3CCNCC3)n2)c1 [Compound 15, N-(3-methoxyphenyl)-6-phenyl-2-(4-piperidyl)pyrimidin-4-amine] | 22.2 µM | 
16 | CN(C)c1ccc(Nc2cc(-c3ccccc3)nc(C3CCOCC3)n2)cc1 [Compound 16, N4,N4-dimethyl-N1-(6-phenyl-2-tetrahydropyran-4-yl-pyrimidin-4-yl)benzene-1,4-diamine] | > 50 µM | IC50 (melanoma cells; 24 h, read-out: IC50 (alone)): > 50 µM
17 | COc1ccc(Nc2cc(-c3ccccc3)nc(C3CCOCC3)n2)cc1 [Compound 17, N-(4-methoxyphenyl)-6-phenyl-2-tetrahydropyran-4-yl-pyrimidin-4-amine] | > 50 µM | IC50 (melanoma cells; 24 h, read-out: IC50 (alone)): > 50 µM
